From PMC4800810 (Biomacromolecules, 2015)

Assays:
[1] = 24 h organ biodistribution in mice with femoral fracture; format: in vivo, CD4 Swiss mice; details: i.v.
solubility in water = format: physicochemical; details: 6BIO by itself, result in words

For 6’-bromoindirubin-3’-oxime [6BIO], the “drug uptake in the fractured femur over the healthy femur” value ([1]; 125I-labelled analogues) was “no statistical difference”, the “accumulation in the lungs, liver, and spleen” value ([1]; 125I-labelled, result in words) was “high accumulation” and the solubility in water (solubility in water) was “only sparingly soluble in water”.
